Results published in patent US8431365B2, “β1,3-N-acetyl-D-galactosamine transferase protein, nucleic acid encoding the same and method of examining canceration using the same” (National Institute of Advanced Industrial Science and …, priority 2003, dated 2013).

Key:
Format in all cases: biochemical
human G34 protein [1] = target: T1, human G34 protein (Homo sapiens, UniProt Q8NCR0); assay: Acceptor substrate specificity to oligosaccharides; settings: for % (radioactivity relative to Bz-β-GlcNAc set to 100%): 50 nmol substrate, HEPES pH 7.4, MnCl2 10 mM, 37° C. 2 hours
T1 construct: made in house; host or cells: Sf21 insect cells (baculovirus, pFBIF-G34A)
T1 sequence (Q8NCR0 36-500): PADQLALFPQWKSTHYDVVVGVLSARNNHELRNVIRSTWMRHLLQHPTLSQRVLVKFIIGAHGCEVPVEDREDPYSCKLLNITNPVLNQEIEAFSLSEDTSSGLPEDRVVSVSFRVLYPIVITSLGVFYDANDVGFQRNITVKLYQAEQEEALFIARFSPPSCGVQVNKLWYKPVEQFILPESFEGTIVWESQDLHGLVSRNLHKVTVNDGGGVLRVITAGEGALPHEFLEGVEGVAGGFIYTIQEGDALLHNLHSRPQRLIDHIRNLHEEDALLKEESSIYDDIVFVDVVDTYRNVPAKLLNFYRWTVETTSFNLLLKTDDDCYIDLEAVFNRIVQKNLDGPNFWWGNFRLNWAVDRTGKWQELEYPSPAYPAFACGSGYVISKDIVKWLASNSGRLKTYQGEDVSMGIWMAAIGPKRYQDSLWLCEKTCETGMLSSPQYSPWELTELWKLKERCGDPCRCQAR
Description: The following reaction system was used for examining the acceptor substrate specificity to oligosaccharides. The acceptor substrates used were pNp-α-Gal, oNp-β-Gal, Bz-α-GlcNAc, Bz-β-GlcNAc, Bz-α-GalNAc, pNp-β-GalNAc, pNp-α-Glc, pNp-β-Glc, pNp-β-GlcA, pNp-α-Fuc, pNp-α-Xyl, pNp-β-Xyl, pNp-α-Man, lactoside-Bz, Lac-ceramide, Gal-ceramide, paragloboside, globoside, Gal-β1-4 GalNAc-α-pNp, Gal-β1-3 GlcNAc-β-pNp, GlcNAc-[…] GlcNAc β-Bz, pNp-core1 (Gal-β1-3 GalNAc-α-pNp), pNp-core2 (Gal-β1-3 (GlcNAc-β1-6) GalNAc-α-pNp), pNp-core3 (GlcNAc-β1-3 GalNAc-α-pNp) and pNp-core6 (GlcNAc-β1-6 GalNAc-α-pNp). “Lac” represents a D-lactose residue.
Each reaction solution (final concentrations in parentheses) was prepared by adding each substrate (50 nmol), HEPES buffer (pH 7.4, 14 mM), Triton CF-54 (trade name) (0.3%), UDP-GalNAc (2 mM), MnCl2 (10 mM), UDP-[^3H]GlcNAc and 5 μl G34 enzyme solution, followed by dilution with H2O to a total volume of […].
(§1) The above reaction mixtures were each reacted at 37° C. for 2 hours. After completion of the reaction, 200 μl H2O was added and each mixture was lightly centrifuged to obtain the supernatant. The supernatant was passed through a Sep-Pak plus C18 Cartridge (Waters), which had been washed once with 1 ml methanol and twice with 1 ml H2O and then equilibrated, to allow the substrate and product in the supernatant to adsorb to the cartridge. After washing the cartridge twice with 1 ml H2O, the adsorbed substrate and product were eluted with 1 ml methanol. The eluate was mixed with 5 ml liquid scintillator ACSII (Amersham Biosciences) and measured for the amount of radiation with a scintillation counter (Beckman Coulter).
The results thus measured were compared assuming that the radioactivity obtained using Bz-β-GlcNAc as a substrate was set to 100% (see Table 5).

mouse G34 = target: T2, mouse G34 (Mus musculus, UniProt Q8BG28); assay: Substrate specificity of β1,3-N-acetylgalactosamine transferase activity of mouse G34; settings: for % (radioactivity relative to Bz-β-GlcNAc set to 100%): 10 nmol substrate, HEPES pH 7.4, MnCl2 10 mM, 37° C. 16 hours
T2 construct: made in house; host or cells: 293T cells transfected with pFLAG-CMV3-mG34A; purified from the supernatant
T2 sequence (Q8BG28 35-504): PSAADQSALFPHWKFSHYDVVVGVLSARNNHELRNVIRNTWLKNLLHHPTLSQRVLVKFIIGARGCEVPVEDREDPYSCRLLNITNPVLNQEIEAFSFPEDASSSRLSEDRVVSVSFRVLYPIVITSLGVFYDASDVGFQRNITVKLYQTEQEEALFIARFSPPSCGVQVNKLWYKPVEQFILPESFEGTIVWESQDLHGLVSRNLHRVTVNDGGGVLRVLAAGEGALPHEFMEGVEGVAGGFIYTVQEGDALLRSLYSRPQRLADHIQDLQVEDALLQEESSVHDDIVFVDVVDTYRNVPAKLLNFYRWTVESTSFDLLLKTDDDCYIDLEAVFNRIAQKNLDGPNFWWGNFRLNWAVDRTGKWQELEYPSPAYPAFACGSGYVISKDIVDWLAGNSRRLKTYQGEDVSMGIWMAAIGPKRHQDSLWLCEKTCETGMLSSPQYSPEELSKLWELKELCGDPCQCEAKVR
Description: The following reaction system was used for examining mouse G34 for its substrate specificity in its β1,3-N-acetylgalactosamine transferase activity. In the reaction solutions shown below, each of the following was used at […] as an “acceptor substrate”: pNp-α-Gal, oNp-β-Gal, Bz-α-GlcNAc, Bz-β-GlcNAc, Bz-α-GalNAc, pNp-β-GalNAc, pNp-α-Glc, pNp-β-Glc, pNp-β-GlcA, pNp-α-Fuc, pNp-α-Xyl, pNp-β-Xyl, pNp-α-Man, lactoside-Bz, Lac-ceramide, Gal-ceramide, Gb3, globoside, Gal-β1-4GalNAc-α-pNp, Galβ1-3GlcNAc-β-Bz, GlcNAc-β1-4-GlcNAc-β-Bz, core1-pNp, core2-pNp, core3-pNp and core6-pNp (all purchased from SIGMA).
Each reaction solution was prepared as follows (final concentrations in parentheses): each substrate (10 nmol), HEPES (N-[2-hydroxyethyl]piperazine-N′-[2-ethanesulfonic acid]) (pH 7.4, 14 mM), MnCl2 (10 mM), Triton CF-54 (trade name) (0.3%), UDP-GalNAc (2 mM) and […] (40 nCi) were mixed and supplemented with 5 μl mouse G34 enzyme solution, followed by dilution with H2O to a total volume of 20 μl.
as §1, with “for 16” for “for 2”
The results thus measured were compared assuming that the radioactivity obtained using Bz-β-GlcNAc as a substrate was set to 100% (Table 11).

human G34 protein [2] = target: T1, human G34 protein; assay: RI assay (divalent ion requirement)
[3] = concentration 2.5 mM, acceptor Bz-β-GlcNAc, HEPES pH 7.4
[4] = concentration 5 mM, acceptor Bz-β-GlcNAc, HEPES pH 7.4
[5] = concentration 10 mM, acceptor Bz-β-GlcNAc, HEPES pH 7.4
[6] = concentration 20 mM, acceptor Bz-β-GlcNAc, HEPES pH 7.4

`CC(=O)N[C@H]1[C@H](OCc2ccccc2)O[C@H](CO)[C@@H](O)[C@@H]1O` [Bz-β-GlcNAc] was tested, and the “% (radioactivity relative to Bz-β-GlcNAc set to 100%)” value (human G34 protein [1]) was 100%, the “increase in radioactivity” value (mouse G34) was “largest increase in radioactivity” and the “% (radioactivity relative to Bz-β-GlcNAc set to 100%)” value (mouse G34) was 100%.

Work on `[Cl-].[Cl-].[Co+2]` [Co, CoCl2] yielded a DPM (human G34 protein [2]; concentration 2.5 mM) of 10979.99 DPM, a DPM (human G34 protein [2]; concentration 5 mM) of 9503.91 DPM and a DPM (human G34 protein [2]; concentration 10 mM) of 10979.99 DPM. For the same compound, the DPM (human G34 protein [2]; concentration 20 mM) was 8070.47 DPM and the DPM (human G34 protein [2]; concentration 40 mM) was 7854.92 DPM.

In the case of `[Cu+2]` [Cu], the “Mn-induced enhancement of the activity on addition of Cu” value (human G34 protein [2]) is reported as “completely eliminated”.

Work on `O=C(O)CN(CCN(CC(=O)O)CC(=O)O)CC(=O)O` [EDTA] yielded a DPM (human G34 protein [2]; pH 7.4) of 149.32 DPM.

`CC(=O)N[C@H]1[C@H](OCc2ccccc2)O[C@H](CO)[C@@H](O[C@@H]2O[C@H](CO)[C@@H](O)[C@H](O)[C@H]2NC(C)=O)[C@@H]1O` [GlcNAcβ1-4GlcNAc-β-Bz] was tested, and the “% (radioactivity relative to Bz-β-GlcNAc set to 100%)” value (human G34 protein [1]) was 29% and the “% (radioactivity relative to Bz-β-GlcNAc set to 100%)” value (mouse G34) was 10%.

In the case of `[Cl-].[Cl-].[Mg+2]` [Mg, MgCl2], the DPM (human G34 protein [2]; [3]) is reported as 4800.03 DPM, the DPM (human G34 protein [2]; [4]) is reported as 8692.15 DPM and the DPM (human G34 protein [2]; [5]) is reported as 8980.56 DPM. For the same compound, the DPM (human G34 protein [2]; [6]) was 6726.32 DPM and the DPM (human G34 protein [2]; concentration 40 mM, acceptor Bz-β-GlcNAc, HEPES pH 7.4) was 5592.88 DPM.

`[Cl][Mn][Cl]` [Mn, MnCl2] showed a DPM (human G34 protein [2]; [3]) of 7260.09 DPM, a DPM (human G34 protein [2]; [4]) of 8270.23 DPM and a DPM (human G34 protein [2]; [5]) of 7748.77 DPM. The DPM (human G34 protein [2]; [6]) was 7515.86 DPM.

For `CC(=O)N[C@H]1[C@H](OC[C@H]2O[C@H](Oc3ccc([N+](=O)[O-])cc3)[C@H](NC(C)=O)[C@@H](O[C@@H]3O[C@H](CO)[C@H](O)[C@H](O)[C@H]3O)[C@H]2O)O[C@H](CO)[C@@H](O)[C@@H]1O` [core2-pNp, Gal-β1-3-(GlcNAc-β1-6)GalNAc-α-pNp], the “increase in radioactivity” value (human G34 protein [1]) was “largest increase in radioactivity”, the “% (radioactivity relative to Bz-β-GlcNAc set to 100%)” value (human G34 protein [1]) was 185% and the “% (radioactivity relative to Bz-β-GlcNAc set to 100%)” value (mouse G34) was 25%.

In the case of `CC(=O)NC1C(OC2C(O)C(CO)OC(Oc3ccc([N+](=O)[O-])cc3)C2NC(C)=O)OC(CO)C(O)C1O` (stereo not drawn) [core3-pNp, GlcNAc-β1-3-GalNAc-α-pNp], the “% (radioactivity relative to Bz-β-GlcNAc set to 100%)” value (human G34 protein [1]) is reported as 8% and the “% (radioactivity relative to Bz-β-GlcNAc set to 100%)” value (mouse G34) is reported as 14%.

`CC(=O)N[C@H]1[C@@H](Oc2ccc([N+](=O)[O-])cc2)O[C@H](CO[C@@H]2O[C@H](CO)[C@@H](O)[C@H](O)[C@H]2NC(C)=O)[C@H](O)[C@@H]1O` [core6-pNp, GlcNAc-β1-6-GalNAc-α-pNp] was tested, and the “% (radioactivity relative to Bz-β-GlcNAc set to 100%)” value (human G34 protein [1]) was 19% and the “% (radioactivity relative to Bz-β-GlcNAc set to 100%)” value (mouse G34) was 18%.

`O=[N+]([O-])c1ccc(O[C@@H]2O[C@H](CO)[C@@H](O)[C@H](O)[C@H]2O)cc1` [pNp-β-Glc] was tested, and the “% (radioactivity relative to Bz-β-GlcNAc set to 100%)” value (mouse G34) was 12%.
